Values of other authors, collected in patent publication US20210299068A1, “ANTIMICROBIAL COMPOSITIONS COMPRISING CHLORHEXIDINE” (3M INNOVATIVE PROPERTIES COMPANY, priority 2018, published 2021).

Settings: at neutral pH

Formation constant for the complex with calcium: 10^6
SMILES: O=C([O-])CN(CCO)CCN(CC(=O)[O-])CC(=O)[O-].[Na+].[Na+].[Na+] [HEDTA.Na3, N-(2-Hydroxyethyl)ethylenediaminetriacetic acid trisodium salt]
